The target in this test is T1, SMO (Mus musculus, UniProt P56726).
T1 construct: endogenous in cells; host or cells: C3H10T1/2 (ATCC #CCL-226)
Kind of test: Smoothened (SMO)/Sonic Hedgehog (SHh) Transient Transcriptional Activation Assay (Gli-luciferase reporter in C3H10T1/2 cells). In kind it is cell-based, murine. The conditions noted are these: SHh 250 ng/ml, 20 hrs; for SMO CELL % INHIBITION @ 2 μM: 2 μM test compound, HCl; for inhibition at 2 µM: C3H 10T1/2, 2 μM test compound, read-out: SMO CELL % INHIBITION @ 2 μM. Summed up: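 Luminescence (Dual-Glo) measured after 20 h co-exposure at 37 °C to 250 ng/ml human SHh and compound at 2 uM down to 2 nM final. Cells were C3H10T1/2 carrying a transfected murine 10× Gli response-element luciferase construct with pEGFP, starved 20 h in 0.5% calf serum beforehand.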

Counter-ions that a name gives are not always drawn.

T1 sequence (P56726 33-793): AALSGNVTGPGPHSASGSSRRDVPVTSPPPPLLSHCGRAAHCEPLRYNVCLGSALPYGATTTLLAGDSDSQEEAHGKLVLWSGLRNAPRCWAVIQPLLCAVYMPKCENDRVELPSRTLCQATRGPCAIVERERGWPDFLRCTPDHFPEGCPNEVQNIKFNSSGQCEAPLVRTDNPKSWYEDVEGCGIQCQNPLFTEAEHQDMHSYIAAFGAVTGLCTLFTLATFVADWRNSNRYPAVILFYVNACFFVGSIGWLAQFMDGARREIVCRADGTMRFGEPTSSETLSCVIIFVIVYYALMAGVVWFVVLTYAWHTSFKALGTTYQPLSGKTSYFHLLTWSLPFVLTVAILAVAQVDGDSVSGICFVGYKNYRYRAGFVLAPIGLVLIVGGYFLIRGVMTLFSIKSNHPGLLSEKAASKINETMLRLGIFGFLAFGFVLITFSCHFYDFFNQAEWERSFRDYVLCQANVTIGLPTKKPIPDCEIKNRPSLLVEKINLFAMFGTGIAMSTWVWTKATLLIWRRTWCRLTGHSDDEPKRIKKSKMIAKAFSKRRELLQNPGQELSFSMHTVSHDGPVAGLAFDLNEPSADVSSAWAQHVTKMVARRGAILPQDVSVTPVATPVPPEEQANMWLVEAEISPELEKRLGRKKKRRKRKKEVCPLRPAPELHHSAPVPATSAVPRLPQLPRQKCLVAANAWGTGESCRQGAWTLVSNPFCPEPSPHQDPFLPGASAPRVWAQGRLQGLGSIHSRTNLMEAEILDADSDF

With `N#Cc1ccc(NC(=O)NC23CCCC(c4nc5cc(C(F)(F)F)ccc5[nH]4)(C2)C3)cc1` [Example 262, 1-(4-cyanophenyl)-3-{5-[5-(trifluoromethyl)-1H-benzimidazol-2-yl]bicyclo[3.1.1]hept-1-yl}urea HCl], the “SMO CELL % INHIBITION @ 2 μM” value was 89%.

For the molecule `O=C(NC12CCCC(c3nc4cc(C(F)(F)F)ccc4[nH]3)(C1)C2)c1cc2c(cn1)OCCO2` [Example 264, N-{5-[5-(trifluoromethyl)-1H-benzimidazol-2-yl]bicyclo[3.1.1]hept-1-yl}-2,3-dihydro[1,4]di-oxino[2,3-c]pyridine-7-carboxamide HCl], the “SMO CELL % INHIBITION @ 2 μM” value is given as 94.31%.

For the molecule `CN1C(=O)COc2ccc(C(=O)N[C@@H]3CCC[C@H](c4nc5cc(Cl)ccc5[nH]4)C3)cc21` [Example 301, N-[(1R,3S)-3-(5-chloro-1H-benzimidazol-2-yl)cyclohexyl]-4-methyl-3-oxo-3,4-dihydro-2H-1,4-benzoxazine-6-carboxamide (+)-tartrate], the inhibition at 2 µM is 108%.

Consider `O=C(Nc1ccc(Cl)cc1Cl)N[C@@H]1CCC[C@H](c2nc3ccccc3[nH]2)C1` [Example 234, 1-[(1R,3S)-3-(1H-benzimidazol-2-yl)cyclohexyl]-3-(2,4-dichlorophenyl) urea], for which the inhibition at 2 µM was 108%.

For `O=C(Cn1nc2ccccc2n1)NC1CCCC(c2nc3ccccc3[nH]2)C1` (centres unmarked) [Example 92, N-[3-(1H-benzimidazol-2-yl)cyclohexyl]-2-(2H-1,2,3-benzotriazol-2-yl)acetamide triflouroacetate], the inhibition at 2 µM came out at 90%.

For the molecule `O=C(N[C@H]1CCC[C@H](c2nc3ccccc3[nH]2)C1)c1cc(C2CC2)n[nH]1` [Example 246, N-(3-(1H-benzo[d]imidaz-ol-2-yl)cyclohexyl)-3-cyclopropyl-1H-pyrazole-5-carboxamide HCl], the inhibition at 2 µM was 44%.

With `COc1ccc(NC(=O)N[C@@H]2CCC[C@H](c3nc4ccccc4[nH]3)C2)c(C)c1` [Example 235, 1-[(1R,3S)-3-(1H-benzimidazol-2-yl)cyclohexyl]-3-(4-methoxy-2-methylphenyl) urea], the inhibition at 2 µM is 98%.

Turning to `O=C(CN1C[C@@H]2CC[C@H]1C2)NC1CCCC(c2nc3ccccc3[nH]2)C1` (stereo partly drawn) [Example 138, 2-[(1S,4R)-2-azabicyclo[2.2.1]hept-2-yl]-N-[3-(1H-benzimidazol-2-yl)cyclohexyl]-acetamide triflouroacetate], the inhibition at 2 µM worked out at 100%.

In the case of `COc1cc(OC)cc(C(=O)N[C@@H]2CCC[C@H](c3nc4ccccc4n3C)C2)c1` [Example 167, 3,5-dimethoxy-N[(1R,3S)-3-(1-methyl-1H-benzimidazol-2-yl)cyclohexyl] benzamide HCl], the inhibition at 2 µM is 101%.

With `N#CCC(=O)NC1CCCC(c2nc3ccccc3[nH]2)C1` (centres unmarked) [Example 102, N-[3-(1H-benzimidazaol-2-yl)cyclohexyl]-2-cyanoacetamide triflouroacetate], the inhibition at 2 µM was found to be 93%.

For the molecule `O=C(CNC(=O)c1ccccc1)NC1CCCC(c2nc3ccccc3[nH]2)C1` (centres unmarked) [Example 117, N-(2-{[3-(1H-benzimidazol-2-yl)cyclohexyl]amino}-2-oxoethyl)benz-amide triflouroacetate], the inhibition at 2 µM was determined as 102%.

As to `CN(C)c1ccc2nc(C3CCCC(NC(=O)c4ccc5c(c4)OCCO5)C3)[nH]c2c1` (centres unmarked) [Example 77, N-{3-[6-(dimethylamino)-1H-benzimidazol-2-yl]cyclohexyl}-2,3-dihydro-1,4-benzodioxine-6-carboxamide HCl], the inhibition at 2 µM was 102%.

With `Cc1cccc2nc(C3CCCC(NC(=O)c4ccc5c(c4)OCCO5)C3)[nH]c12` (centres unmarked) [Example 79, N-[3-(7-methyl-1H-benzimidazol-2-yl)cyclohexyl]-2,3-dihydro-1,4-benzodioxine-6-carboxamide HCl], the inhibition at 2 µM is 102%.

On to `O=C(NC1CCCC(c2nc3ccccc3[nH]2)C1)C1CCCCC1` (centres unmarked) [Example 57, N-(3-(1H-benzo[d]imidazol-2-yl)cyclohexyl) cyclohexanecar-boxamide HCl], for which the inhibition at 2 µM stood at 48%.

A word on the inhibition: it is the drop in the measured response relative to a control, in per cent.

Values taken from patent US20100029615A1, “BENZIMIDAZOLE DERIVATIVES” (priority 2006, published 2010).
